Source: ChEMBL document CHEMBL1201862, “PubChem BioAssay data set” (2004)
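Interpolation was linear, between the two tested concentrations surrounding the appropriate level; five concentrations were tested over 48 hours in 96-well plates. GI50 is the concentration that inhibits growth by half.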 The source made the active and inactive calls. Rule as the data show it: active = GI50 up to about 1.1 µM and inactive = higher.

How the values were obtained:
Experiment in all cases: DTP human tumour cell line panel, 48 h
[1] = tested on: Malme-3M
[2] = tested on: OVCAR-3
[3] = tested on: U-251
[4] = tested on: MDA-MB-435
[5] = tested on: ACHN
[6] = tested on: PC-3
[7] = tested on: MDA-MB-231
[8] = tested on: SN12C
[9] = tested on: LOX IMVI
[10] = tested on: SF-268
[11] = tested on: M14
[12] = tested on: K562
[13] = tested on: NCI/ADR-RES
[14] = tested on: NCI-H23
[15] = tested on: Hs-578T
[16] = tested on: CAKI-1
[17] = tested on: SF-295
[18] = tested on: OVCAR-5
[19] = tested on: T47D
[20] = tested on: MCF7
[21] = tested on: SK-OV-3
[22] = tested on: COLO 205
[23] = tested on: SK-MEL-5
[24] = tested on: SF-539
[25] = tested on: BT-549
[26] = tested on: KM12
[27] = tested on: SNB-75
[28] = tested on: SR
[29] = tested on: HT-29
[30] = tested on: UACC-257
[31] = tested on: NCI-H522
[32] = tested on: HCC 2998
[33] = tested on: MDA-N
[34] = tested on: HCT-116
[35] = tested on: TK-10
[36] = tested on: UO-31
[37] = tested on: A498
[38] = tested on: DU-145
[39] = tested on: HL-60
[40] = tested on: CCRF-CEM
[41] = tested on: A549
[42] = tested on: IGROV-1
[43] = tested on: NCI-H460
[44] = tested on: HOP-62
[45] = tested on: SNB-19
[46] = tested on: OVCAR-8
[47] = tested on: NCI-H226
[48] = tested on: SK-MEL-2
[49] = tested on: EKVX
[50] = tested on: UACC-62
[51] = tested on: HCT-15
[52] = tested on: RPMI-8226
[53] = tested on: 786-0
[54] = tested on: MOLT-4
[55] = tested on: SK-MEL-28
[56] = tested on: SW-620
[57] = tested on: OVCAR-4
[58] = tested on: RXF 393
[59] = tested on: HOP-92

Measured: GI50

C=CC(C)(C)c1c(OC)oc2ccc(OC)c(C)c2c1=O
98.2 µM: [51]
inactive: [1] > 100 µM | [2] > 100 µM | [3] > 100 µM | [4] > 100 µM | [5] > 100 µM | [6] 78.7 µM | [7] > 100 µM | [8] > 100 µM | [9] > 100 µM | [10] > 100 µM | [11] > 100 µM | [12] 78.2 µM | [13] 96.8 µM | [14] > 100 µM | [15] > 100 µM | [16] > 100 µM | [17] > 100 µM | [18] > 100 µM | [19] 56.4 µM | [20] > 100 µM | [21] > 100 µM | [22] > 100 µM | [23] 61.7 µM | [24] > 100 µM | [25] 90.2 µM | [26] > 100 µM | [27] 89.5 µM | [28] 84.1 µM | [29] 96.4 µM | [30] > 100 µM | [31] 98.2 µM | [32] > 100 µM | [33] > 100 µM | [34] 89.7 µM | [35] > 100 µM | [36] > 100 µM | [37] > 100 µM | [38] > 100 µM | [39] 70.6 µM | [40] > 100 µM | [41] > 100 µM | [42] > 100 µM | [43] > 100 µM | [44] > 100 µM | [45] > 100 µM | [46] > 100 µM | [47] > 100 µM | [48] > 100 µM | [49] > 100 µM | [50] > 100 µM | [52] > 100 µM | [53] > 100 µM | [54] 49.5 µM | [55] > 100 µM | [56] > 100 µM

Cc1ccc(C2=NN=C3C(c4ccccc4)=Nc4ccccc4N3C2)cc1
active: [35] 0.348 µM
4.73 µM: [51]
inactive: [1] 5.38 µM | [2] 2.61 µM | [3] 6.49 µM | [4] 16.3 µM | [57] 3.18 µM | [5] 16.7 µM | [6] 11.8 µM | [7] 19.8 µM | [8] 15.5 µM | [9] 5.65 µM | [10] 4.49 µM | [11] 3.64 µM | [12] 4.61 µM | [13] 3.93 µM | [14] 25.7 µM | [15] 9.16 µM | [16] 19.7 µM | [17] 12 µM | [58] 4.41 µM | [18] 18 µM | [19] 27.2 µM | [20] 8.38 µM | [21] 21 µM | [22] 9.77 µM | [23] 6.31 µM | [24] 19.1 µM | [25] 20.6 µM | [26] 26.4 µM | [28] 1.56 µM | [29] 11.6 µM | [30] 4.03 µM | [31] 2.92 µM | [32] 19.6 µM | [33] 32.9 µM | [34] 5.28 µM | [36] 4.1 µM | [37] > 53.1 µM | [38] 3.14 µM | [39] 1.92 µM | [40] 1.88 µM | [41] 27.7 µM | [42] 13.1 µM | [43] 3.56 µM | [44] 9.98 µM | [45] 16.9 µM | [46] 6.07 µM | [47] 12.9 µM | [48] 22.6 µM | [49] 10.9 µM | [50] 15.7 µM | [52] 5.98 µM | [53] 6.56 µM | [54] 1.34 µM | [59] 24.1 µM | [55] > 38 µM | [56] 5.51 µM

C/C=C1/CN2[C@@H](C3=C[C@@H]4[C@@H]5N(C3=O)c3ccccc3[C@@]53CCN5C/C(=C/C)[C@@H]4C[C@H]53)C[C@@]34c5ccccc5N5C(=O)CC=C([C@H]1C[C@H]23)[C@H]54 [ISOSUNGUCINE]
active: [24] 1.11 µM | [39] 1.03 µM | [40] 1.1 µM
inactive: [1] 6.04 µM | [2] 5.85 µM | [3] 2.23 µM | [4] 5.01 µM | [57] 6.43 µM | [5] 5.81 µM | [6] 2.7 µM | [7] 2.43 µM | [8] 3.01 µM | [10] 6.19 µM | [11] 1.18 µM | [12] 2.05 µM | [13] 8.81 µM | [14] 6.85 µM | [15] 6.65 µM | [16] 5.86 µM | [17] 7.73 µM | [58] 2.17 µM | [18] 7.76 µM | [19] 9.93 µM | [20] 3.46 µM | [21] 8.77 µM | [22] 1.81 µM | [23] 2.75 µM | [25] 8.34 µM | [26] 5.41 µM | [27] 7.91 µM | [28] 1.19 µM | [29] 2.11 µM | [30] 1.24 µM | [31] 6.9 µM | [32] 2.43 µM | [33] 3.84 µM | [34] 2.94 µM | [35] 7.85 µM | [36] 2.32 µM | [37] 6.92 µM | [38] 9.91 µM | [41] 7.66 µM | [43] 6.62 µM | [44] 7.06 µM | [45] 7.52 µM | [46] 3.91 µM | [47] 7.83 µM | [48] 5.32 µM | [49] 5.66 µM | [50] 2.86 µM | [53] 2.16 µM | [54] 1.46 µM | [59] 5.55 µM | [55] 1.42 µM | [56] 2.92 µM
2.33 µM: [51]
